Source: ChEMBL document CHEMBL1201862, “PubChem BioAssay data set” (2004)
Active and inactive are the calls of the source.

Tests used:
[1] = viability of uninfected HEp-2 cells – cell-based, HTS, cytotoxicity control for RSV inhibitor project, dose response (AID 2410); format: functional; conditions: human respiratory syncytial virus
[2] = biological target: T1, Hepatocyte nuclear factor 4-alpha (Homo sapiens, UniProt P41235); format: functional, cell-based;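 also: biochemical luminescence-based dose-response counterscreen measuring inhibition of HNF4 dimerization, run alongside a screen for blockers of ABHD5–perilipin-5 interaction; split luciferase complementation of HNF4 fusion proteins in cell lysate measuring dimerization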
T1 sequence (P41235 whole entry): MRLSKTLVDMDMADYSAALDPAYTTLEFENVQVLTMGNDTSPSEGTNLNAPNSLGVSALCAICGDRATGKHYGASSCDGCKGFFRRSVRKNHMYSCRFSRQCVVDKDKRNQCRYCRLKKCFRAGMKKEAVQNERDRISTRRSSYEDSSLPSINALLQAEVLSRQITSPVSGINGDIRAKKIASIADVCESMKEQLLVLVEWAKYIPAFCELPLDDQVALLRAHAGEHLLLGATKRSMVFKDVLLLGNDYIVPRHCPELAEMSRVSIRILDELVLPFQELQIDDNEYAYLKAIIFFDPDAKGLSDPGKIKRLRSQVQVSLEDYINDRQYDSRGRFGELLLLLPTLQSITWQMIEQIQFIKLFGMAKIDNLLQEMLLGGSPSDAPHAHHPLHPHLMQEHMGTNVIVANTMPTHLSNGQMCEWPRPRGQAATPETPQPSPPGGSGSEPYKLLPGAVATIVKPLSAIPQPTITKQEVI

[3] = loss of viability in HepG2 cells – cell-based, CellTiter-Glo, cherry-picked, cytotoxicity control for Shn3 inhibitor project, dose response (AID 624134); format: functional
[4] = fluconazole-exposed Candida albicans growth modulators – fluorescence, retest, confirmation (AID 2467); format: functional, cell-based
[5] = NIH3T3 cell viability loss – ATP luminescence, mouse fibroblasts, counter-screen, dose response (AID 2010); format: functional, cell-based;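 also: cells exposed to compound for about 90 hours before reading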
[6] = reduction of Shn3 3'UTR-driven luciferase in osteoblasts – cell-based, Clone20 osteoblasts, firefly luciferase, cherry-picked, dose response (AID 624132); format: functional;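 also: firefly luciferase luminescence from reporter carrying the Shn3 3'UTR in osteoblasts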
Paired box protein Pax-8 = Paired box protein Pax-8 (Homo sapiens, UniProt Q06710); test: PAX8 transcriptional activity inhibition in RMG-I – RMG-I cells, luciferase, cherry-pick, dose response (AID 687027); format: functional, cell-based;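 also: luciferase reporter driven by Pax8 target thyroperoxidase promoter measured by SteadyGlo luminescence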
Paired box protein Pax-8, sequence (Q06710 whole entry): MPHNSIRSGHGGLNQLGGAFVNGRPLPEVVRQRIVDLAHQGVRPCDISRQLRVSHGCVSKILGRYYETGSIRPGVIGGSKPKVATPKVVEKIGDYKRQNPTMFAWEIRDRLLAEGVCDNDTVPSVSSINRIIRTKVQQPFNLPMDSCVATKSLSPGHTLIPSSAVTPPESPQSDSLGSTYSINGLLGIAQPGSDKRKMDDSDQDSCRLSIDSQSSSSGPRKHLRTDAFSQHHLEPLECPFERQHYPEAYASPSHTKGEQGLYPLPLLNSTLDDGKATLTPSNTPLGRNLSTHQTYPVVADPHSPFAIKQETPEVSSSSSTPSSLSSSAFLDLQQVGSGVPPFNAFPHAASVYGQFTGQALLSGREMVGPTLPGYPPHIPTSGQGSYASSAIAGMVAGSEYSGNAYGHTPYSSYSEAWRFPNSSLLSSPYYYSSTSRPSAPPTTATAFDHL

[7] = Trypanosoma cruzi growth suppression in host cells – NIH3T3 host cells, beta-gal luminescence, confirmation (AID 2044); format: functional, cell-based;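 also: intracellular parasites grown in NIH/3T3 mouse fibroblasts as host cells; luminescent beta-galactosidase reporter signal from transgenic T. cruzi replicating inside host cells; inhibitors lower the luminescence signal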
[8] = biological target: T2, Heat shock factor protein 1 (Mus musculus, UniProt P38532); test: decrease of HSF1-responsive luciferase luminescence – cell-based, NIH3T3, dose retest, confirmation (AID 2382); format: functional;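 also: NIH3T3 fibroblasts with HSF1-driven luciferase reporter stressed by proteasome inhibitor MG132; luminescence from HSF1-driven luciferase expression after 8 hours of MG132 stress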
T2 sequence (P38532 whole entry): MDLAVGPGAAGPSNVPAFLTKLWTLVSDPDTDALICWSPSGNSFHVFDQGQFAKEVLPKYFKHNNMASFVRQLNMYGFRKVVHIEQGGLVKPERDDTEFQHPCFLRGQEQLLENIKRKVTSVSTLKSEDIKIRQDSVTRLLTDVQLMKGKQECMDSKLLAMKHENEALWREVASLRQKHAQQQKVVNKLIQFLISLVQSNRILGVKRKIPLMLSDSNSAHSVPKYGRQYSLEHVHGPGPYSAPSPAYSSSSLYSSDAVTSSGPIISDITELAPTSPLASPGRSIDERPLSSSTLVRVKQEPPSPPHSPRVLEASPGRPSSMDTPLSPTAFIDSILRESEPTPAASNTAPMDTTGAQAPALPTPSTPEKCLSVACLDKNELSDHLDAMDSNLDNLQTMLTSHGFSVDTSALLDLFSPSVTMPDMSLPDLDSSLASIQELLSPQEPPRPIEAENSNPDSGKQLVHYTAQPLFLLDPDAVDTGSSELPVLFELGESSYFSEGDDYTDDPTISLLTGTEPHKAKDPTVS

[9] = general cell-killing toxicity readout – plate reader, dry powder samples, cytotoxicity control for PAX8 inhibitor project, dose response (AID 743021); format: functional, cell-based
[10] = non-specific 3'UTR reporter inhibition in Clone20-Shn3RL – cell-based, Renilla luciferase, cherry-picked, counter-screen for Shn3 inhibitor project, dose response (AID 624133); format: functional
[11] = NIH-3T3 fibroblast cytotoxicity, dose response, cytotoxicity control, cell-based, fluorescence, Alamar Blue, secondary assay (AID 2327); format: functional;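 also: NIH-3T3 mouse fibroblasts cultured with fluconazole at 8 µg/mL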
[12] = biological target: T3, Replicative DNA helicase DnaB (Mycobacterium tuberculosis, UniProt P9WMR3); test: DnaB intein splicing inhibitors, dose response, biochemical, cell-free fluorescence (AID 449749); format: functional
T3 sequence (P9WMR3 whole entry): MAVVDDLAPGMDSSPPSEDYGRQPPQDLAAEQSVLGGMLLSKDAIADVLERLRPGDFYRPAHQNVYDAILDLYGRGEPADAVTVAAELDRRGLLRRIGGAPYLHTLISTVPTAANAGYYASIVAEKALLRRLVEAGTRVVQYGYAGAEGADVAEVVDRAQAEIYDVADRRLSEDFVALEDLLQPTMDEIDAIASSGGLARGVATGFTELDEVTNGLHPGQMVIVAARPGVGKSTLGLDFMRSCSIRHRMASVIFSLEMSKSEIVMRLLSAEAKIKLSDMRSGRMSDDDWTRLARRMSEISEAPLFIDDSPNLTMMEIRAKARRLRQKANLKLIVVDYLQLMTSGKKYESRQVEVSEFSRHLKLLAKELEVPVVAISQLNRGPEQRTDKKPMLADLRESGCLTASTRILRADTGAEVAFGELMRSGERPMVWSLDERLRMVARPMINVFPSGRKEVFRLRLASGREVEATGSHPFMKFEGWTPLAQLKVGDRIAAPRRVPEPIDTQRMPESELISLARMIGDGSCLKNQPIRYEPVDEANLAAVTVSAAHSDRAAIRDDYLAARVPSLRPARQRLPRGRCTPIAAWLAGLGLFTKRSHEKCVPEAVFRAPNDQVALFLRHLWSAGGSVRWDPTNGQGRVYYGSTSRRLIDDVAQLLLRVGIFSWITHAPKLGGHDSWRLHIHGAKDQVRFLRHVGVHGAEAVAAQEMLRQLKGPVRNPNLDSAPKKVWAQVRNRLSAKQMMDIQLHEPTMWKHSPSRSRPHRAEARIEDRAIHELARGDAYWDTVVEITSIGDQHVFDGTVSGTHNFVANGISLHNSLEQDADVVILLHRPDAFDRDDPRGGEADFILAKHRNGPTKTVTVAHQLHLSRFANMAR

[13] = biological target: T4, Polyadenylate-binding protein 1 (Homo sapiens, UniProt P11940); test: MLLE binding blockers, Cy5 peptide tracer – biochemical, fluorescence polarization, Cy5-PAM2 peptide, secondary, miRNA deadenylation inhibitor project, dose response (AID 602260); format: functional; conditions: read-out: IC50_Mean
T4 sequence (P11940 whole entry): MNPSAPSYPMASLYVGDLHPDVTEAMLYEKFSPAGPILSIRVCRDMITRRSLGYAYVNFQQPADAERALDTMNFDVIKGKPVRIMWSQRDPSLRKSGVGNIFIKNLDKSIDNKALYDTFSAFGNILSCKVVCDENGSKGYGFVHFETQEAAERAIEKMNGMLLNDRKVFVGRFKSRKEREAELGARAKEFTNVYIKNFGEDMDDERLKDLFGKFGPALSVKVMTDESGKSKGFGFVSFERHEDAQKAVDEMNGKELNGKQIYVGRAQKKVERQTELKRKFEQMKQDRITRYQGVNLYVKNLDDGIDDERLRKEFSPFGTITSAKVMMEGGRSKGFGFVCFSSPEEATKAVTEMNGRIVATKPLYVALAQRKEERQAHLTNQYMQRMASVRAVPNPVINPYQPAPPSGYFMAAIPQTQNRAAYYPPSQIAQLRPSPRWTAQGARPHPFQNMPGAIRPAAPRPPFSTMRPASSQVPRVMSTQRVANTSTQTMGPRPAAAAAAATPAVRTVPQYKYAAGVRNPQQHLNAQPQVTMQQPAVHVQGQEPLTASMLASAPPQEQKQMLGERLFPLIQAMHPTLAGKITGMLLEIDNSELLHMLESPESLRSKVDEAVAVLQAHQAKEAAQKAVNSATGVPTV

Protein RecA = biological target: T5, Protein RecA (Mycobacterium tuberculosis, UniProt P9WHJ3); test: Fluorescence Cell-Free Homogeneous Dose Retest to Identify Inhibitors of RecA-Intein Splicing Activity. [Related pubchem assays (depositor defined):AID2097, AID2223, AID489010, AID492950]; format: functional
T5 sequence (P9WHJ3 whole entry): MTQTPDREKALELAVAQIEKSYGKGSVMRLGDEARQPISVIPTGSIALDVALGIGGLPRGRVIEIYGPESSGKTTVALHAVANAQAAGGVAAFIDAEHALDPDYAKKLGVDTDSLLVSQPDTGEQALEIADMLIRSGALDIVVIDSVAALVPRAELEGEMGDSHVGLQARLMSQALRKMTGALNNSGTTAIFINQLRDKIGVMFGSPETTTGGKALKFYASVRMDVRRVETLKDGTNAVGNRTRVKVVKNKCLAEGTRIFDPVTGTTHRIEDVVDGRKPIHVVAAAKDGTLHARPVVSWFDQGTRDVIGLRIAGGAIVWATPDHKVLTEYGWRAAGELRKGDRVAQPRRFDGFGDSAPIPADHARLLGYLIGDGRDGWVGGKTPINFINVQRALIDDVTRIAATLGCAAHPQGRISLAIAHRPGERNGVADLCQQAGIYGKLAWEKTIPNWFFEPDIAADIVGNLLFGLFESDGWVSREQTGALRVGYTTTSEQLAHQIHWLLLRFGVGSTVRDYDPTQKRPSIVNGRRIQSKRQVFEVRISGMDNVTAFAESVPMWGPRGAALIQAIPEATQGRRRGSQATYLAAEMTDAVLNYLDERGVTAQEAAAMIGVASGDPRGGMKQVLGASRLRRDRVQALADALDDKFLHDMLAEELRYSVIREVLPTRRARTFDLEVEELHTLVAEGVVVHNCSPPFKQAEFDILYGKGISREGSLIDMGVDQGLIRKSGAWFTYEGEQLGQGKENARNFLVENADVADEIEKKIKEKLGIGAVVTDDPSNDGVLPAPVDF

[14] = biological target: T4, Polyadenylate-binding protein 1; test: MLLE domain peptide-binding blockers, IC50 – biochemical, fluorescence polarization, FITC-PAM2 peptide, dose response (AID 602259); format: functional; conditions: read-out: IC50_Mean
Genome polyprotein = Genome polyprotein (dengue virus type 2, UniProt P29990); test: flavivirus cap methylation enzyme inhibition – biochemical, confirmation dose response, primary screen (AID 588689); format: functional
Genome polyprotein, sequence (P29990 2492-3391 limits assumed): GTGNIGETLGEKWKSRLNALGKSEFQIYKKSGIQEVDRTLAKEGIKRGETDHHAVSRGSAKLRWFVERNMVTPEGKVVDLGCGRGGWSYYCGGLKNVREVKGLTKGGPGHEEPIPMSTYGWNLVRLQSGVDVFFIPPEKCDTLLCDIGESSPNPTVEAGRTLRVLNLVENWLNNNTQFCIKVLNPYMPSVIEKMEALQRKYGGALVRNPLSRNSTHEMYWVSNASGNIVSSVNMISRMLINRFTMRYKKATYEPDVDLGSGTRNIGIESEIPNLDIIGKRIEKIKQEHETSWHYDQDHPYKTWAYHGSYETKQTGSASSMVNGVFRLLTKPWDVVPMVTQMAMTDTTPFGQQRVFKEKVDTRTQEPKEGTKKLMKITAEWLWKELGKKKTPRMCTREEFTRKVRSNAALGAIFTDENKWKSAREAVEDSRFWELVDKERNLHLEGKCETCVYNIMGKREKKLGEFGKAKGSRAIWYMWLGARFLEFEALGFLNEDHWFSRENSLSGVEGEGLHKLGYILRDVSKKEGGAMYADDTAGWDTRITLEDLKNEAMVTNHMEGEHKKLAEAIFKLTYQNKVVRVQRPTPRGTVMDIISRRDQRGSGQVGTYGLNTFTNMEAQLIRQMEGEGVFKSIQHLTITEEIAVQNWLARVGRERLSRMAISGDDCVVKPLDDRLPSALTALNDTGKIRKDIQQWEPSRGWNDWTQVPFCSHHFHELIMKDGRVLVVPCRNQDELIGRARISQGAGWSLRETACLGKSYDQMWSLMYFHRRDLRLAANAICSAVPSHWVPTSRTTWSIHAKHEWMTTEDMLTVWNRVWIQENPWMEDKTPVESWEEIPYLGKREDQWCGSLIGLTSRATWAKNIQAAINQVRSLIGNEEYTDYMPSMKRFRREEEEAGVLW

Vero [15] = test: cells; format: functional; conditions: Chlorocebus sabaeus
Vero [16] = test: cells; format: functional, cell-based; conditions: Chlorocebus sabaeus

Structure (SMILES): O=C1/C(=C/c2cccnc2)CC/C1=C\c1cccnc1
- CC50 [1]: 27.2 µM (active)
- IC50 [2]: 7.46 µM (active)

Structure (SMILES): Cc1ccc(S(=O)(=O)c2ncccc2[N+](=O)[O-])cc1
- AC50 [3]: 30.2 µM (active)
- EC50 [4]: 2.73 µM (active)
- EC50 [5]: 2.85 µM (active)
- AC50 [6]: 1.91 µM (active)
- AC50 (Paired box protein Pax-8): 8.34 µM (active)
- EC50 [7]: 2.96 µM (active)
- EC50 [8]: 3.92 µM (active)
- AC50 [9]: 23.6 µM (active)
- AC50 [10]: 6.47 µM (active)
- EC50 [11]: 4.37 µM (inconclusive)

Structure (SMILES): CCN(CC)CCC(C)OC(c1ccccc1)c1ccccc1 (stereo not given)
- IC50 [2]: 20.7 µM (inactive)

Structure (SMILES): O=C(O)c1ccccc1Nc1cc(Cl)c2nonc2c1[N+](=O)[O-]
- AC50 [12]: 0.0492 µM (active)
- IC50 [13]: > 66 µM (inactive)
- EC50 (Protein RecA): 1.94 µM (active)
- IC50 [14]: > 66 µM (inactive)

Structure (SMILES): Cc1ccc(C(=O)C2=C(O)C(=O)OC2c2ccc(Cl)cc2)cc1 (stereo not given)
- IC50 [2]: 8.81 µM (active)
- IC50 (Genome polyprotein): 60.8 µM (active)

Structure (SMILES): O=C(CC1S/C(=N\c2cccc3ccccc23)N(Cc2ccccn2)C1=O)Nc1ccccc1Br (stereo not given)
- AC50 (Paired box protein Pax-8): 15.4 µM (active)
- AC50 [9]: 67.5 µM (active)

Structure (SMILES): C#CCN(C[C@@H]1[C@@H](OC(=O)Nc2cccs2)[C@@H](OC(=O)Nc2cccs2)Cn2c(=O)ccc(=O)n21)S(=O)(=O)c1ccc(C)cc1
- CC50 (Vero [15]): > 25 µM (active)
- IC50 [2]: 5.6 µM (active)
- AC50 (Paired box protein Pax-8): 4.22 µM (active)
- IC50 (Vero [16]): 23.3 µM (active)
